Source: patent US11299489B1, “Thiazole compounds as protein kinase inhibitors” (NATIONAL HEALTH RESEARCH INSTITUTES, priority 2020, dated 2022)
Structures can show the parent of a compound that is named as a salt.

Columns and labels:
GIST48 cells = experiment: Cell proliferation assay (methylene blue), GIST48; type: cell-based; conditions: Homo sapiens, GIST48, 120 h
Description: (§1) GIST882, GIST48 and GIST430 cells were all cultured in incubators maintained at 37° C. and 5% CO2. GIST882 was cultured in RPMI-1640 supplemented with 20% fetal bovine serum (FBS). GIST48 was cultured with F10 supplemented with 20% FBS, 0.5% Mito, serum extender (BD Bioscience, 355006) and 1% pituitary extract bovine (BD Bioscience 354123). GIST430 was cultured in IMDM supplemented with 20% FBS. GIST882, GIST430 and GIST48 cells were provided by Dr. Jonathan A. Fletcher (Harvard Medical School, US).
(§2) GIST cells (4×10^4) were treated with different dosage of compounds. The treated GIST882 cells were incubated for 144 h and GIST48 and GIST430 cells were incubated for 120 h at 37° C. in 5% CO2. Cell proliferation was determined by incubating the cells with methylene blue (Clontech, CA, US) for 1 hour. The absorbance was measured at 450 nm using SpectraMax M5 microplate reader (Molecular Devices, US).

[1] = tested on: BaF3/FLT3-ITD-D835Y cells; experiment: MTS cell viability assay, BaF3/FLT3-ITD-D835Y; type: cell-based, murine; conditions: Mus musculus, 72 h
Text: (§3) MV4:11, BaF3 and HEK293T cell lines were obtained from American Type Culture Collection (ATCC, Manassas, Va., USA). MOLM-13 cell line was purchased from the Deutsche Sammlung von Microorganismen and Zellkulturen GmbH (DSMZ, Braunschweig, Germany). The GIST-T1 cell line was obtained from COSMO BIO CO., LTD (Tokyo, Japan). The GIST-T1, MOLM-13, MV4:11, BaF3, BaF3/FLT3-D835Y, BaF3/FLT3-ITD-F691L and BaF3/FLT3-ITD-D835Y cells were maintained in RPMI 1640 medium supplemented with 10% fetal bovine serum (FBS), 10 U/mL penicillin, and 100 μg/mL streptomycin at 37° C. and 5% CO2. The kasumin-1 cells were cultured in RPMI 1640 medium supplemented with 20% fetal bovine serum (FBS), 1 mM Hepes, 1 mM sodium pyruvate, 10 U/ml penicillin, and 100 μg/ml streptomycin. The HEK293T and FLT3-transfected HEK293T cells were cultured in DMEM (Invitrogen, USA) medium with 10% FBS fetal bovine serum. […]
(§4) Cell viability assay was performed by seeding 1×10^4 cells (MOLM-13, MV4:11, BaF3, BaF3/FLT3-D835Y, BaF3/FLT3-ITD-D835Y and BaF3/FLT3-ITD-F691L) per well in a 96-well culture plate. […] The viable cells were quantitated using the CellTiter 96 AQueous MTS method (Promega, Madison, Wis., USA) according to the manufacturer's recommended protocol. The results were determined by measuring the absorbance at 490 nm using a plate reader (Victor2; PerkinElmer, Shelton, Conn., USA). […]

GIST430 cells = experiment: Cell proliferation assay (methylene blue), GIST430; type: cell-based; conditions: Homo sapiens, GIST430, 120 h
Description: as §1, §2

GIST882 cells = experiment: Cell proliferation assay (methylene blue), GIST882; type: cell-based; conditions: Homo sapiens, GIST882, 144 h
Description: as §1, §2

MV4:11 cells = experiment: MTS cell viability assay, MV4:11; type: cell-based; conditions: Homo sapiens, MV4-11, 72 h
Text: as §3, §4

[2] = tested on: BaF3/FLT3-ITD-F691L cells; experiment: MTS cell viability assay, BaF3/FLT3-ITD-F691L; type: cell-based, murine; conditions: Mus musculus, 72 h
Text: as §3, §4

[3] = biological target: T1, GST-FLT3-KD WT (FLT3 kinase catalytic domain) (Homo sapiens, UniProt P36888); experiment: FLT3 WT Kinase-Glo assay; type: biochemical; conditions: 1 μM ATP, 30° C., 4 h; read-out: IC50, inhibiting FLT3 activity
T1 construct: containing the FLT3 kinase catalytic domain (residues Y567-5993); GST; made in house; host or cells: Sf9 insect cells (baculovirus, pBac-PAK8-GST-FLT3-KD plasmid)
T1 sequence (P36888 567-993 limits assumed): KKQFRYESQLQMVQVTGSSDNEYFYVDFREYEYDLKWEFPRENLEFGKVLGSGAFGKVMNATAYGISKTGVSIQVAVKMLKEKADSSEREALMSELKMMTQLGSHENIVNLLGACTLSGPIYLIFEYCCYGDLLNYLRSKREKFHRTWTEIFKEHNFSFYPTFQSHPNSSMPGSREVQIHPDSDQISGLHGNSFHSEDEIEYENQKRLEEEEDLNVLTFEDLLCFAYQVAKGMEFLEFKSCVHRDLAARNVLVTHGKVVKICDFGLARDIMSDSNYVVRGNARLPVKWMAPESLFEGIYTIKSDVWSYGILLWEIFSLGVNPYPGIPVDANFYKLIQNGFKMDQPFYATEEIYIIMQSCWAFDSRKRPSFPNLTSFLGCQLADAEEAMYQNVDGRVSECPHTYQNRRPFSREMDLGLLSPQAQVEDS
Description: A study was carried out as follows to test compound 1 HCl salt prepared according to EXAMPLE 1 in inhibiting FLT3 activity.
GST-FLT3-KD^WT containing the FLT3 kinase catalytic domain (residues Y567-5993) was expressed in Sf9 insect cells transfected the baculovirus containing pBac-PAK8-GST-FLT3-KD plasmid. An FLT3^WT Kinase-Glo assay was carried out in 96-well plates at 30° C. for 4 h to test compound in a final volume of 50 μL including the following components: 75 ng GST-FLT3-KD^WT proteins, 25 mM HEPES, pH 7.4, 4 mM MnCl2, 10 mM MgCl2, 2 mM DTT, 0.02% Triton X-100, 0.1 mg/mL bovine serum albumin, 25 μM Her2 peptide substrate, 0.5 mM Na3VO4, and 1 μM ATP. Following incubation, 50 μL Kinase-Glo Plus Reagent (Promega, Madison, Wis., USA) was added to each well and the mixture was incubated at 25° C. for 20 min. A 70-μL aliquot of each reaction mixture was transferred to a black microtiter plate and the luminescence was measured on Wallac Vector 1420 multilabel counter (PerkinElmer, Shelton, Conn., USA).

MOLM-13 cells = experiment: MTS cell viability assay, MOLM-13; type: cell-based; conditions: Homo sapiens, MOLM-13, 72 h
Text: as §3, §4

Kasumi-1 xenografts = experiment: In vivo efficacy study on Kasumi-1 xenografts; set-up: species or system SCID male mice; conditions: days 1-5 and 8-12; for Day 18 Tumor Size: control 880
[4] = tested on: BaF3 cells (IL3 dependent pro-B cell line); experiment: MTS cell viability assay, BaF3 + IL3; type: cell-based, murine; conditions: Mus musculus; BaF3 + IL3, 72 h
Text: as §3, §4

GIST-T1 cells = experiment: MTS cell viability assay, GIST-T1; type: cell-based; conditions: Homo sapiens, GISTT1, 72 h
Text: as §3, §4

[5] = biological target: T2, human c-KIT (residues T544-V976) (Homo sapiens, UniProt P10721); experiment: c-Kit ADP Kinase-Glo assay; type: biochemical; conditions: 20 μM ATP, 30° C., 150 mins; read-out: IC50, inhibiting c-Kit activity
T2 construct: human c-KIT (residues T544-V976); His (N); made in house; host or cells: baculovirus-insect cell expression system (printed '519', evidently Sf9)
T2 sequence (P10721 544-976): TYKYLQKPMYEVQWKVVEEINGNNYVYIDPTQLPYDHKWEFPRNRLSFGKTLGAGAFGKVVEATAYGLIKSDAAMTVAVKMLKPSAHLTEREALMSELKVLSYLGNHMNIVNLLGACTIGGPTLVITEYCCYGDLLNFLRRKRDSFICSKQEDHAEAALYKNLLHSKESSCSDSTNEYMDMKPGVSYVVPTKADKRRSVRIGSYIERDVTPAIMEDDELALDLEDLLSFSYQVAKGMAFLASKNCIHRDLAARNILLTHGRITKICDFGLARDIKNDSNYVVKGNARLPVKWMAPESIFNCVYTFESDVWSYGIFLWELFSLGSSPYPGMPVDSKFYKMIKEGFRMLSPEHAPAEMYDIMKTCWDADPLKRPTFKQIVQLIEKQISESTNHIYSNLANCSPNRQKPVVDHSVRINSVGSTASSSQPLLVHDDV
Description: A study was carried out as follows to test compound 1 HCl salt prepared according to EXAMPLE 1 in inhibiting c-Kit activity.
The N-terminal His-tagged human c-KIT (residues T544-V976) recombinant proteins, expressed in 519 baculovirus-insect cell expression systems, were purified for c-KIT ADP Kinase-Glo assay. A c-Kit-ADP Kinase-Glo assay was carried out in 96-well plates at 30° C. for 150 mins with a final volume of 10 μL, including 40 mM Tris pH 7.4, 20 mM MgCl2, 2 mM MnCl2, 2 mM DTT, 0.01% BSA, 20 μM ATP, 20 μM poly(Glu,Tyr) 4:1 peptide, 0.1 mM Na3VO4, 250 ng of recombinant c-Kit proteins, and a tested compound at the indicated concentration. The reactions were stopped by the addition of 5 μL ADP-Glo™ Reagent (Promega, Madison, Wis., USA) at 25° C. with 40 min incubation, followed by 10 μL of kinase detection reagent for a further 30 min. Finally, a […] aliquot of each reaction mixture was transferred to a black microtiter plate and the luminescence was measured on Wallac Vector 1420 multilabel counter (Perkin-Elmer, Shelton, Conn., USA).

BaF3/FLT3-D835Y cells = experiment: MTS cell viability assay, BaF3/FLT3-D835Y; type: cell-based, murine; conditions: Mus musculus, 72 h
Text: as §3, §4

Cc1nc(Nc2ncc(-c3ccncc3)s2)cc(N2CCNCC2)n1 [Compound 1 HCl salt, 2-Methyl-6-(piperazin-1-yl)-N-[5-(pyridine-4-yl)-1,3-thiazol-2-yl]pyrimidin-4-amine dihydrochloride]
GI50 (GIST48 cells): 20 nM | GI50 [1]: 53 nM | GI50 (GIST430 cells): 33 nM | GI50 (GIST882 cells): 8 nM | GI50 (MV4:11 cells): 1.3 nM | GI50 [2]: 95 nM | IC50 [3]: < 100 nM | GI50 (MOLM-13 cells): 2.9 nM | Body Weight Loss (Kasumi-1 xenografts; 10 mg/kg oral): No | Mortality (n = 6) (Kasumi-1 xenografts; 10 mg/kg oral): 0/6 | Day 18 Tumor Size (Kasumi-1 xenografts; 10 mg/kg oral): 700 mm^3 | Body Weight Loss (Kasumi-1 xenografts; 50 mg/kg oral): No | Mortality (n = 6) (Kasumi-1 xenografts; 50 mg/kg oral): 0/6 | Day 18 Tumor Size (Kasumi-1 xenografts; 50 mg/kg oral): 80 mm^3 | GI50 [4]: 2580 nM | GI50 (GIST-T1 cells): 2.3 nM | IC50 [5]: < 100 nM | GI50 (BaF3/FLT3-D835Y cells): 14 nM
